Test results taken from US11071726B2, “Treating gastric cancer using combination therapies comprising liposomal irinotecan, oxaliplatin, 5-fluorouracil (and leucovorin)” (Ipsen Biopharm Ltd., priority 2016, dated 2021).
Like-named read-outs stand apart in the source and are kept apart here. Values belong to the molecule of their own block, whether it stands above or below them.

Tests used:
[1] = molecular target: T1, Topoisomerase I (Homo sapiens, UniProt P11387); details: metabolite formed by nonspecific carboxylesterases; cited from earlier work
T1 sequence (P11387 1-765): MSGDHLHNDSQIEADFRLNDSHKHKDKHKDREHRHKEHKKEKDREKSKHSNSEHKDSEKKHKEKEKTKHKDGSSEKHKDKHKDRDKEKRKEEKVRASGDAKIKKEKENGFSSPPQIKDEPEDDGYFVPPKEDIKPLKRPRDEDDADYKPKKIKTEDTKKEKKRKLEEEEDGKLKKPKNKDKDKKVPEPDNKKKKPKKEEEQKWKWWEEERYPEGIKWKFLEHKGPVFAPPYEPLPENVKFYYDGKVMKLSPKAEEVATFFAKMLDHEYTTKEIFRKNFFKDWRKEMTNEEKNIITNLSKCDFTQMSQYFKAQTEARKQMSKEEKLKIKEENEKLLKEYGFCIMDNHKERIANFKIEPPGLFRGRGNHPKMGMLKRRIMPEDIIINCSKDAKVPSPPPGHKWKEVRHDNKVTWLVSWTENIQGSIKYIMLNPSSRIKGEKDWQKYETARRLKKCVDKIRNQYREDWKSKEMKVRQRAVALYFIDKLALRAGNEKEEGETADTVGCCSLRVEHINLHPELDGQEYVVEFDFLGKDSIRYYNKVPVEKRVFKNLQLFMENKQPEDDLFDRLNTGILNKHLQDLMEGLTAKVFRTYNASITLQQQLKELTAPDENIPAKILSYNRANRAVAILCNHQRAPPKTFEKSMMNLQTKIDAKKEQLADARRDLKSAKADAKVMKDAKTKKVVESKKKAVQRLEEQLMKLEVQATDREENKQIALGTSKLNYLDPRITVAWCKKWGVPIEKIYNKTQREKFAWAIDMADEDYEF

[2] = human, in vivo
[3] = cited from earlier work
[4] = single-agent irinotecan 350 mg/m^2 once every-3-weeks, cited from earlier work

Molecule: CCc1c2c(nc3ccc(O)cc13)-c1cc3c(c(=O)n1C2)COC(=O)[C@]3(O)CC [SN-38]
activity relative to irinotecan [1]: 100-1000 fold

consecutive doses of dose level 1 received by any patient [2]: ≤ 2 | patients administered dose level 1 on day 15 of cycle 1 [2]: 3 | patients administered dose level −1 on days 1 and 15 of cycle 1 [2]: 6
Molecule: irinotecan sucrose octasulfate salt liposome injection [MM-398]

Molecule: FOLFIRINOX
incidence of most common Grade 3-4 adverse events (neutropenia, fatigue, vomiting, diarrhea, thrombocytopenia, sensory neuropathy, anemia, elevated ALT, thromboembolism, febrile neutropenia) ([3]; Phase 3 study of the FOLFIRINOX combination): ≥ 5% | toxicity ([3]; first-line treatment): significant toxicity

Molecule: CCc1c2c(nc3ccc(OC(=O)N4CCC(N5CCCCC5)CC4)cc13)-c1cc3c(c(=O)n1C2)COC(=O)[C@]3(O)CC [irinotecan, (S)-4,11-diethyl-3,4,12,14-tetrahydro-4-hydroxy-3,14-dioxo1H-pyrano[3′,4′:6,7]-indolizino[1,2-b]quinolin-9-yl-[1,4′bipiperidine]-1′-carboxylate]
incidence of grade 4 neutropenia ([4]; patients heterozygous (UGT1A1 6/7 genotype)): 12.5% | incidence of grade 4 neutropenia ([4]; patients homozygous for the UGT1A1*28 allele): ≤ 50% | grade 4 neutropenia ([4]; patients homozygous for the wild-type allele (UGT1A1 6/6 genotype)): no grade 4 neutropenia was observed
